Article PMC11659749 (RSC Advances, 2024)
Values after ≈ are worked out from the molar mass of the structure shown. Each block holds one molecule with its values, some of them ahead of it.

Assays:
K. pneumonia ATCC 13883 [1] = experiment: Inhibition zone, MIC and MBC; assay type: cell-based, Klebsiella pneumoniae
MRSA ATCC 43300 [2] = experiment: Inhibition zone, MIC and MBC; assay type: cell-based, Staphylococcus aureus
E. coli ATCC 25922 [3] = experiment: Inhibition zone, MIC and MBC; assay type: cell-based
MRSA ATCC 43300 [4] = experiment: Biofilm formation inhibition, crystal violet assay; assay type: cell-based, Staphylococcus aureus; details: at the corresponding MIC
E. coli ATCC 25922 [5] = experiment: Biofilm formation inhibition, crystal violet assay; assay type: cell-based; details: at the corresponding MIC
C. albicans ATCC 10231 [6] = experiment: Biofilm formation inhibition, crystal violet assay; assay type: cell-based, Candida albicans; details: at the corresponding MIC
P. aeruginosa ATCC 10145 [7] = experiment: Biofilm formation inhibition, crystal violet assay; assay type: cell-based, Pseudomonas aeruginosa; details: at the corresponding MIC
K. pneumonia ATCC 13883 [8] = experiment: Biofilm formation inhibition, crystal violet assay; assay type: cell-based, Klebsiella pneumoniae; details: at the corresponding MIC
C. albicans ATCC 10231 [9] = experiment: Inhibition zone, MIC and MBC; assay type: cell-based; details: Candida albicans, ATCC10231
P. aeruginosa ATCC 10145 [10] = experiment: Inhibition zone, MIC and MBC; assay type: cell-based, Pseudomonas aeruginosa
[11] = tested on: Enterococcus faecalis ATCC 51299; experiment: MIC, broth microdilution; assay type: cell-based; details: ATCC51299
[12] = tested on: MRSA NRS384 (MRSA USA300); experiment: MIC, broth microdilution; assay type: cell-based, methicillin-resistant Staphylococcus aureus; details: Staphylococcus aureus
[13] = tested on: E. coli JW55031 (TolC mutant); experiment: MIC, broth microdilution; assay type: cell-based; details: Escherichia coli
[14] = tested on: Neisseria gonorrhoeae 181; experiment: MIC, broth microdilution; assay type: cell-based; details: Neisseria gonorrhoeae, 181, Neisseria gonorrhoeae 181
[15] = tested on: Clostridium difficile ATCC BAA 1870; experiment: MIC, broth microdilution; assay type: cell-based; details: Clostridioides difficile, BAA1870, Clostridium difficile ATCC BAA 1870
[16] = tested on: C. albicans SS5314 (wild type); experiment: MIC, broth microdilution; assay type: cell-based; details: Candida albicans
[17] = tested on: Escherichia coli BW25113 (wild type); experiment: MIC, broth microdilution; assay type: cell-based
[18] = tested on: methicillin-resistant Staphylococcus aureus; experiment: Time-kill assay; assay type: cell-based; details: 4 × MIC, 24 hours incubation at 37 °C
human erythrocytes = experiment: Hemolytic activity; assay type: cell-based; details: up to 64 μg mL^−1, 37 °C for 1 h
[19] = Klebsiella pneumoniae, ATCC13883
[20] = Staphylococcus aureus, ATCC43300|MRSA
[21] = Pseudomonas aeruginosa, ATCC10145

MIC (K. pneumonia ATCC 13883 [1]; [19]): 4 µg/mL (≈ 7.21 µM)
MIC (MRSA ATCC 43300 [2]; [20]): 8 µg/mL (≈ 14.4 µM)
MIC (E. coli ATCC 25922 [3]; Escherichia coli, ATCC25922): 16 µg/mL (≈ 28.9 µM)
MIC (C. albicans ATCC 10231 [9]): 7.8 µg/mL (≈ 14.1 µM)
MIC (P. aeruginosa ATCC 10145 [10]; [21]): 8 µg/mL (≈ 14.4 µM)
SMILES: CO/N=C(\C(=O)N[C@@H]1C(=O)N2C(C(=O)O)=C(CSc3nc(=O)c(=O)[nH]n3C)CS[C@H]12)c1csc(N)n1 [Ceftriaxone]
IZD (K. pneumonia ATCC 13883 [1]; K. pneumonia ATCC 13883, mean ± SD): 34.34 ± 0.47 millimeters
MBC (K. pneumonia ATCC 13883 [1]; [19]): 8 µg/mL (≈ 14.4 µM)
IZD (MRSA ATCC 43300 [2]; MRSA ATCC 43300, mean ± SD): 30.34 ± 1.24 millimeters
MBC (MRSA ATCC 43300 [2]; [20]): 8 µg/mL (≈ 14.4 µM)
IZD (E. coli ATCC 25922 [3]; E. coli ATCC 25922, mean ± SD): 36 ± 1.50 millimeters
MBC (E. coli ATCC 25922 [3]; Escherichia coli, ATCC25922): 32 µg/mL (≈ 57.7 µM)
Inhibition of biofilm formation (%) (MRSA ATCC 43300 [4]): 73.262 ± 0.21%
Inhibition of biofilm formation (%) (E. coli ATCC 25922 [5]): 59.14 ± 0.16%
Inhibition of biofilm formation (%) (C. albicans ATCC 10231 [6]): 82.50 ± 0.14%
Inhibition of biofilm formation (%) (P. aeruginosa ATCC 10145 [7]): 74.39 ± 0.68%
Inhibition of biofilm formation (%) (K. pneumonia ATCC 13883 [8]): 61.23 ± 0.22%
MBC (C. albicans ATCC 10231 [9]): 31.2 µg/mL (≈ 56.3 µM)
IZD (P. aeruginosa ATCC 10145 [10]; P. aeruginosa ATCC 10145, mean ± SD): 35 ±1.85 millimeters
MBC (P. aeruginosa ATCC 10145 [10]; [21]): 16 µg/mL (≈ 28.9 µM)

SMILES: CCCC#Cc1ccc(-n2nnc(C(C)=NNC(=N)N)c2C)cc1 [Compound 19, 2-(1-(5-Methyl-1-(4-(pent-1-yn-1-yl)phenyl)-1H-1,2,3-triazol-4-yl)ethylidene)hydrazine-1-carboximidamide]
MIC [11]: 8 µg/mL (≈ 24.7 µM)
MIC [12]: 32 µg/mL (≈ 98.9 µM)
MIC [13]: 32 µg/mL (≈ 98.9 µM)
MIC [14]: 64 µg/mL (≈ 198 µM)
MIC [15]: 32 µg/mL (≈ 98.9 µM)
MIC [16]: 16 µg/mL (≈ 49.5 µM)
MIC [17]: > 64 µg/mL

SMILES: CC(=NNC(=N)N)c1nnn(-c2ccc(C#CCC(C)C)cc2)c1C [Compound 20, 2-(1-(5-Methyl-1-(4-(4-methylpent-1-yn-1-yl)phenyl)-1H-1,2,3-triazol-4-yl)ethylidene)hydrazine-1-carboximidamide]
MIC [11]: 8 µg/mL (≈ 23.7 µM)
MIC [12]: ≤ 4 µg/mL
MIC [13]: 8 µg/mL (≈ 23.7 µM)
MIC [14]: 32 µg/mL (≈ 94.8 µM)
MIC [15]: 8 µg/mL (≈ 23.7 µM)
MIC [16]: 8 µg/mL (≈ 23.7 µM)
MIC [17]: > 64 µg/mL

SMILES: CCCCC#Cc1ccc(-n2nnc(C(C)=NNC(=N)N)c2C)cc1 [Compound 21, 2-(1-(1-(4-(Hex-1-yn-1-yl)phenyl)-5-methyl-1H-1,2,3-triazol-4-yl)ethylidene)hydrazine-1-carboximidamide]
MIC [11]: 32 µg/mL (≈ 94.8 µM)
MIC [12]: 32 µg/mL (≈ 94.8 µM)
MIC [13]: 32 µg/mL (≈ 94.8 µM)
MIC [14]: > 64 µg/mL
MIC [15]: 16 µg/mL (≈ 47.4 µM)
MIC [16]: 16 µg/mL (≈ 47.4 µM)
MIC [17]: > 64 µg/mL

SMILES: CCCCCCC#Cc1ccc(-n2nnc(C(C)=NNC(=N)N)c2C)cc1 [Compound 22, 2-(1-(1-(4-(Oct-1-yn-1-yl)phenyl)-5-methyl-1H-1,2,3-triazol-4-yl)ethylidene)hydrazine-1-carboximidamide]
MIC [11]: 64 µg/mL (≈ 175 µM)
MIC [12]: 64 µg/mL (≈ 175 µM)
MIC [13]: 64 µg/mL (≈ 175 µM)
MIC [14]: > 64 µg/mL
MIC [15]: 64 µg/mL (≈ 175 µM)
MIC [16]: 64 µg/mL (≈ 175 µM)
MIC [17]: > 64 µg/mL

SMILES: CC(=NNC(=N)N)c1nnn(-c2ccc(C#CC3CC3)cc2)c1C [Compound 24, 2-(1-(1-(4-(Cyclopropylethynyl)phenyl)-5-methyl-1H-1,2,3-triazol-4-yl)ethylidene)hydrazine-1-carboximidamide]
MIC [11]: > 64 µg/mL
MIC [12]: 64 µg/mL (≈ 199 µM)
MIC [13]: 64 µg/mL (≈ 199 µM)
MIC [14]: > 64 µg/mL
MIC [15]: 64 µg/mL (≈ 199 µM)
MIC [16]: > 64 µg/mL
MIC [17]: > 64 µg/mL

SMILES: CC(=NNC(=N)N)c1nnn(-c2ccc(C#CC3CCCC3)cc2)c1C [Compound 25, 2-(1-(1-(4-(Cyclopentylethynyl)phenyl)-5-methyl-1H-1,2,3-triazol-4-yl)ethylidene)hydrazine-1-carboximidamide]
MIC [11]: > 64 µg/mL
MIC [12]: 64 µg/mL (≈ 183 µM)
MIC [13]: 64 µg/mL (≈ 183 µM)
MIC [14]: 64 µg/mL (≈ 183 µM)
MIC [15]: > 64 µg/mL
MIC [16]: > 64 µg/mL
MIC [17]: > 64 µg/mL

SMILES: CC(=NNC(=N)N)c1nnn(-c2ccc(C#CC3CCCCC3)cc2)c1C [Compound 26, 2-(1-(1-(4-(Cyclohexylethynyl)phenyl)-5-methyl-1H-1,2,3-triazol-4-yl)ethylidene)hydrazine-1-carboximidamide]
MIC [11]: 8 µg/mL (≈ 22 µM)
MIC [12]: 16 µg/mL (≈ 44 µM)
MIC [13]: 64 µg/mL (≈ 176 µM)
MIC [14]: > 64 µg/mL
MIC [15]: 16 µg/mL (≈ 44 µM)
MIC [16]: 16 µg/mL (≈ 44 µM)
MIC [17]: > 64 µg/mL

SMILES: CC(=NNC(=N)N)c1nnn(-c2ccc(C#Cc3ccccc3)cc2)c1C [Compound 30, 2-(1-(5-Methyl-1-(4-(phenylethynyl)phenyl)-1H-1,2,3-triazol-4-yl)ethylidene)hydrazine-1-carboximidamide]
MIC [11]: 16 µg/mL (≈ 44.8 µM)
time to complete bacterial eradication [18]: ≤ 24 h
MIC [12]: ≤ 4 µg/mL
MIC [13]: 16 µg/mL (≈ 44.8 µM)
MIC [14]: > 64 µg/mL
MIC [15]: > 64 µg/mL
MIC [16]: 8 µg/mL (≈ 22.4 µM)
MIC [17]: > 64 µg/mL

SMILES: CC(=NNC(=N)N)c1nnn(-c2ccc(C#Cc3ccc(C)cc3)cc2)c1C [Compound 31, 2-(1-(5-Methyl-1-(4-(p-tolylethynyl)phenyl)-1H-1,2,3-triazol-4-yl)ethylidene)hydrazine-1-carboximidamide]
MIC [11]: 8 µg/mL (≈ 21.5 µM)
MIC [12]: 8 µg/mL (≈ 21.5 µM)
MIC [13]: 4 µg/mL (≈ 10.8 µM)
MIC [14]: > 64 µg/mL
MIC [15]: 2 µg/mL (≈ 5.38 µM)
MIC [16]: 2 µg/mL (≈ 5.38 µM)
MIC [17]: > 64 µg/mL

MIC [16]: 0.5 µg/mL (≈ 1.63 µM)
SMILES: OC(Cn1cncn1)(Cn1cncn1)c1ccc(F)cc1F [Fluconazole, reference compound]

SMILES: CNC(C)C1CCC(N)C(OC2C(N)CC(N)C(OC3OCC(C)(O)C(NC)C3O)C2O)O1 (stereo not shown) [Gentamicin, reference compound]
MIC [13]: 0.25 µg/mL (≈ 0.523 µM)

SMILES: CC(=O)NC[C@H]1CN(c2ccc(N3CCOCC3)c(F)c2)C(=O)O1 [Linezolid, reference compound]
MIC [11]: 1 µg/mL (≈ 2.96 µM)
MIC [12]: 1 µg/mL (≈ 2.96 µM)
MIC [13]: 8 µg/mL (≈ 23.7 µM)
MIC [14]: 64 µg/mL (≈ 190 µM)
MIC [15]: 1 µg/mL (≈ 2.96 µM)
MIC [16]: > 64 µg/mL

MIC [14]: 2 µg/mL (≈ 4.5 µM)
SMILES: CN(C)[C@@H]1C(O)=C(C(N)=O)C(=O)[C@@]2(O)C(O)=C3C(=O)c4c(O)cccc4[C@@](C)(O)[C@H]3C[C@@H]12 [Tetracycline, reference compound]

SMILES: CN[C@H](CC(C)C)C(=O)N[C@H]1C(=O)N[C@@H](CC(N)=O)C(=O)N[C@H]2C(=O)N[C@H]3C(=O)N[C@H](C(=O)N[C@H](C(=O)O)c4cc(O)cc(O)c4-c4cc3ccc4O)[C@H](O)c3ccc(c(Cl)c3)Oc3cc2cc(c3O[C@@H]2O[C@H](CO)[C@@H](O)[C@H](O)[C@H]2O[C@H]2C[C@](C)(N)[C@H](O)[C@H](C)O2)Oc2ccc(cc2Cl)[C@H]1O [Vancomycin, reference compound]
MIC [11]: 64 µg/mL (≈ 44.2 µM)
time to complete bacterial eradication [18]: about 24 hours
MIC [12]: 1 µg/mL (≈ 0.69 µM)
MIC [13]: 16 µg/mL (≈ 11 µM)
MIC [14]: > 64 µg/mL
MIC [15]: 1 µg/mL (≈ 0.69 µM)
MIC [16]: > 64 µg/mL

SMILES: O=C(O)c1cn(C2CC2)c2cc(N3CCNCC3)c(F)cc2c1=O [ciprofloxacin]
hemolytic activity (human erythrocytes): 15%
